# Test results from patent US20230000848A1, “METHODS OF TREATING NASH” (Gilead Sciences, Inc., priority 2021, published 2023).
# How the values were obtained:
# liver cytokine levels [1] = test: Liver cytokine levels by ELISA from liver lysates, GAN mouse model; format: in vivo, mice
# Protocol: (§1) The effect of COT inhibitor Compound A, ACC inhibitor Compound B, Cenicriviroc (CVC), and the combination of Compound A and Compound B in the Gubra amylin NASH mouse model (GAN) was determined.
# [2] = Whole body fat mass by ECHO MRI, GAN mouse model; format: in vivo, mice; conditions: 60 mg/kg PO BID, after 84 days of dosing
# Protocol: as §1
# (§2) FIG. 6 plots the percent fat mass of treatment group 1 (wt), vehicle (treatment group 2), COT inhibitor (Compound A, treatment group 3), ACC inhibitor (Compound B, treatment group 5), and combination of Compound A and Compound B (treatment group 4) in the Gubra amylin NASH (GAN) mouse model. Cenicriviroc (CVC) used as a control (treatment group 6). Fat mass was calculated by ECHO MRI.
# [3] = test system: Gubra amylin NASH (GAN) mouse model; test: NAFLD activity score from H&E stained liver sections, GAN mouse model; format: in vivo, mice; conditions: 60 mg/kg BID
# Protocol: The effect of COT inhibitor Compound A, ACC inhibitor Compound B, Cenicriviroc (CVC), and the combination of Compound A and Compound B in the Gubra amylin NASH mouse model (GAN) was determined. [table] FIG. 10 plots NAFLD activity score of Compound A (60 mg/kg BID), Compound B (10 mg/Kg QD), CVC (100 mg/Kg QD), and the combination Compound A and Compound B in from liver tissue the Gubra amylin NASH mouse model. CVC=Cenicriviroc, used as a control (100 mg/Kg QD). Individual components comprising the NAFLD score includes hepatocellular ballooning (FIG. 11A), lobular inflammation (FIG. 11B), and steatosis score (FIG. 11C). NAFLD activity score was determined by scoring of steatosis, inflammation, and hepatocyte ballooning from hematoxylin and eosin stained liver sections.
# [4] = test system: Gubra amylin NASH (GAN) mouse model; test: Liver total cholesterol, GAN mouse model; format: in vivo, mice; conditions: treatment group 3 (60 mg/kg BID)
# Protocol: as §1
# FIG. 12 plots the liver total cholesterol levels for treatment group 1 (wt), vehicle (treatment group 2), COT inhibitor (Compound A, treatment group 3), ACC inhibitor (Compound B, treatment group 5), and combination of Compound A and Compound B (treatment group 4) in the Gubra amylin NASH (GAN) mouse model. Cenicriviroc (CVC) used as a control (treatment group 6). Total cholesterol levels were calculated from was measured using commercial kits (Roche Diagnostics) on the cobas c 501 autoanalyzer according to the manufacturer's instructions.
# [5] = test system: Choline Deficient High Fat Diet (CDHFD) model of fatty liver; test: Liver hydroxyproline (OH-P) content, rat CDHFD model; format: in vivo, Male Wistar Han Rats; conditions: 100 mg/Kg PO BID (treatment group 4), 42 days, vs vehicle group 2
# Protocol: (§3) Compound A and Compound B were studied in a Choline Deficient High Fat Diet (CDHFD) model as described below. Rats enrolled in this study were first fed a choline deficient high fat diet (CDHFD) for 42 days prior to test article administration Animals were then split into treatment groups 1-8 and test article was administered as detailed in Table 1 for 42 days.
# Liver tissue obtained at the end of the study was subjected to picrosirius red staining (PSR) was assessed according to standard techniques. Liver hydroxyproline content was measured from cryopowdered liver tissue. Chloramine-T was used to oxidize the free hydroxyproline for the production of a pyrrole. Addition of Ehrlich's reagent results in the formation of a chromophore that can be measured at 550 nm on a spectramax plate reader.
# FIG. 3 plots liver hydroxyproline (OH—P) content from liver tissue for control (treatment group 1), start and end for the vehicle (treatment group 2), COT inhibitor (Compound A referred to as TPL2i, low dose=100 mg/Kg QD, high dose=100 mg/Kg BID), ACC inhibitor (Compound B referred to as ACCi, 10 mg/kg QD), and coadministration of Compound B with Compound A (treatment group 5 (TPL2i low dose+ACCi) and treatment group 6 (TPL2i high dose+ACCi)). Liver hydroxyproline (OH—P) content was calculated from liver tissue samples. […]
# liver cytokine levels [6] = test: Liver cytokine levels by ELISA from liver lysates, rat CDHFD model; format: in vivo, Male Wistar Han Rats; conditions: TPL2i = group 4, TPL2i+ACCi = group 6, vs vehicle
# Protocol: as §3
# [7] = Body weight, Gubra amylin NASH (GAN) mouse model; format: in vivo, mice; conditions: 60 mg/kg PO BID, after 84 days of dosing
# Protocol: as §1
# FIG. 5 plots the body weight of treatment group 1 (wt), vehicle (treatment group 2), COT inhibitor (Compound A, 60 mg/kg BID), ACC inhibitor (Compound B, 10 mg/Kg QD), and combination of Compound A and Compound B (treatment group 4) in the Gubra amylin NASH (GAN) mouse model. Cenicriviroc (CVC) used as a control (100 mg/Kg QD).
# [8] = test system: Choline Deficient High Fat Diet (CDHFD) model of fatty liver; test: Picrosirius red staining (PSR) of liver tissue, rat choline deficient high fat diet (CDHFD) model; format: in vivo, Male Wistar Han Rats; conditions: for fibrosis as measured by PSR, decrease relative to vehicle: vs vehicle group 2
# Protocol: Compound A and Compound B were studied in a Choline Deficient High Fat Diet (CDHFD) model as described below. Rats enrolled in this study were first fed a choline deficient high fat diet (CDHFD) for 42 days prior to test article administration Animals were then split into treatment groups 1-8 and test article was administered as detailed in Table 1 for 42 days. [table] Liver tissue obtained at the end of the study was subjected to picrosirius red staining (PSR) was assessed according to standard techniques. Liver hydroxyproline content was measured from cryopowdered liver tissue. Chloramine-T was used to oxidize the free hydroxyproline for the production of a pyrrole. Addition of Ehrlich's reagent results in the formation of a chromophore that can be measured at 550 nm on a spectramax plate reader. FIG. 2 plots the PSR (% area) for control (treatment group 1), start and end for the vehicle (treatment group 2), COT inhibitor (Compound A referred to as TPL2i, 100 mg/Kg QD (low dose), 100 mg/Kg BID (high dose)), ACC inhibitor (Compound B referred to as ACCi, 10 mg/kg QD), and coadministration of Compound B with Compound A (treatment groups 5 and 6). Data in FIG. 2 is based on all animals in the treatment group. In FIG. 2, a higher value for PSR % area is reflective of a higher level of fibrosis.
# [9] = test system: Gubra amylin NASH (GAN) mouse model; test: Alpha-smooth muscle actin (aSMA) IHC on liver tissue, GAN mouse model; format: in vivo, mice; conditions: treatment group 3 (60 mg/kg BID) vs vehicle group 2, % area IHC
# Protocol: as §1
# FIG. 9 plots the […] (aSMA) levels from liver tissue of treatment group 1 (wt), vehicle (treatment group 2), COT inhibitor (Compound A, treatment group 3), ACC inhibitor (Compound B, treatment group 5), and combination of Compound A and Compound B (treatment group 4) in the Gubra amylin NASH (GAN) mouse model. Cenicriviroc (CVC) used as a control (treatment group 6). Alpha-smooth muscle actin (aSMA) levels were calculated from % area of alpha-SMA antibody staining on liver tissue (IHC).
# [10] = test system: Gubra amylin NASH (GAN) mouse model; test: Picrosirius red staining (PSR) of liver tissue, GAN mouse model; format: in vivo, mice
# Protocol: as §1
# as §2, with “FIG. 8” for “FIG. 6”, “plots liver fibrosis levels based on” for “plots the”, “percent PSR for” for “percent fat mass of”, “6).” for “6). Fat mass was calculated by ECHO MRI.”
smiles,measurement,setting,value
"CCCCOCCOc1ccc(-c2ccc3c(c2)/C=C(/C(=O)Nc2ccc([S@@+]([O-])Cc4cncn4CCC)cc2)CCCN3CC(C)C)cc1 [CVC, Cenicriviroc, reference compound]",liver cytokine levels,liver cytokine levels [1]; treatment group 6 (100 mg/Kg),Changes in cytokine levels were not observed
Cc1nc(F)ccc1[C@H](Nc1cc(Cl)c2ncc(C#N)c(NCC(C)(C)C)c2c1)c1cn(C2(C(F)F)CC2)nn1 [Compound A],fat mass decrease,[2],31%
same,NAFLD activity score at the end of the study compared to vehicle,[3],more animals had a lower NAFLD activity score
same,Liver total cholesterol reduction,[4],40%
same,liver IL-1β level,liver cytokine levels [1]; treatment group 3 vs vehicle,statistically significant decreases
same,liver KC/GRO level,liver cytokine levels [1]; treatment group 3 vs vehicle,statistically significant decreases
same,liver MCP-1 level,liver cytokine levels [1]; treatment group 3 vs vehicle,statistically significant decreases
same,liver TNF-α level,liver cytokine levels [1]; treatment group 3 vs vehicle,statistically significant decreases
same,reduction in liver hydroxyproline compared to vehicle,[5],38%
same,liver IL-1b level,liver cytokine levels [6],statistically significant decreases
same,liver IL-10 level,liver cytokine levels [6],statistically significant decreases
same,liver IL-18 level,liver cytokine levels [6],statistically significant decreases
same,liver MIP1-α level,liver cytokine levels [6],statistically significant decreases
same,body weight decrease,[7],16%
same,"fibrosis as measured by PSR, decrease relative to vehicle","[8]; 100 mg/Kg PO BID (treatment group 4, TPL2i high dose), 42 days",55%
same,"fibrosis as measured by PSR, decrease relative to vehicle","[8]; 100 mg/Kg PO QD (treatment group 3, TPL2i low dose), 42 days",41%
same,liver fibrosis in PSR stained liver tissue (FIG. 1) compared to vehicle,[8]; treatment group 4 (100 mg/Kg BID) vs vehicle group 2,less liver fibrosis
same,"Alpha-smooth muscle actin (aSMA) levels, reduction compared to vehicle",[9],41%
same,"fibrosis measured by PSR, decrease compared to vehicle",[10]; 60 mg/kg PO BID (treatment group 3) vs vehicle group 2,46%
same,PSR relative to Compound B alone,[10]; BID treatment,reduced PSR
COc1ccccc1[C@H](Cn1c(=O)n(C(C)(C)C(=O)O)c(=O)c2c(C)c(-c3ncco3)sc21)O[C@H]1CC[C@@H](O)CC1 [Compound B],PSR reduction,"[8]; 10 mg/kg PO QD (treatment group 7), 42 days",33%
